Assay: Solubility of polymerization initiator in the acrylamide compound having an ester structure
Format: physicochemical

solubility in the acrylamide compound having an ester structure: poor solubility
Compound: Cc1cc(C)c(C(=O)P(=O)(C(=O)c2c(C)cc(C)cc2C)c2ccccc2)c(C)c1 [B2-1, Bis(2,4,6-trimethylbenzoyl) phenyl phosphine oxide]
